The test system of data set [1] is ICH rats. Description: Short-term neurological function of ICH rats (Garcia score, beam balance test). It is filed as in vivo, rat. The following applies: ICH model; for Beam balance score / Garcia score: 24 hours after modeling. As for the experimental part: Experimental grouping: At 2 h after endovascular perforation or collagenase VII injection, Zea Longa score was used to evaluate the neurological function of rats. Successful model rats were randomly divided into groups for administration.
All groups were administrated through the tail vein injection except for group N administrated intraperitoneally.
The rats were fasted for 12 hours before operation, and were anesthetized with 4% isoflurane, and kept anesthetized with 2% isoflurane. The animals were fixed in the prone position in a stereotaxic apparatus with the body temperature maintained at about 37° C. A traditional skin incision of the head was prepared along the midline. According to the stereotaxic atlas of the rat brain translated by Zhuge Qichao (George Paxinos, Charles Watson, Paxinos, Watson, & Zhuge Qichao. The Rat Brain in Stereotaxic Coordinates [M]. People's Medical Publishing House, 2005), the right caudate nucleus of the rat was determined as 0.0 mm anterior, 3.0 mm lateral to the bregma, and 5.5 mm ventral to the cortical surface. After labeling, we drilled an open window in the skull, and 1 μL of 0.5 U collagenase VII was slowly injected for 5 minutes with a microinjector. After the injection, the needle was stagnated for 8 minutes and slowly withdrawn. Then the scalp was sutured after the burr hole of skull was sealed with a sterile bone wax, and the rats were returned to the cage for normal feeding. The sham group conducted the same procedure as the model group, but received an equal volume of physiological saline into the caudate nucleus.
According to Zea Longa's neurological function score, the rats were scored 2 hours after the operation when they were awake from anesthesia. Successful model rats with a score of 1 to 3 points were enrolled in the group: • 0 points: no neurological deficits with normal activity; • 1 point: inability to fully extend the contralateral forepaw; • 2 points: the animal appears to turn in circles when crawling; • 3 points: the animal tends to lean to the hemiplegic side; • 4 points: the animal cannot walk spontaneously or loses consciousness. 1.4 Assessment of Short-Term Neurological Function
The neurological function of rats was comprehensively evaluated with Garcia score and beam balance test 24 hours after modeling. The criteria of Garcia score are shown in Table 1, which evaluates the movement, sensation, climbing and limb symmetry of the rats with the score range of 3 to 18 points. The lower the score, the more severe the neurological injury. The criteria of the beam balance test are shown in Table 2, which evaluated the proprioception and body coordination of rats with the score range of 0 to 6 points. The higher the score, the more severe the neurological injury. Scoring was done independently by a technician blinded to the modeling and drug administration.

For data set [2], the system named is SAH rats. In words: Glutamate and GABA content in brain tissue, SAH rats. It is filed as in vivo, rat. The following applies: 12 to 24 hours after operation, group M. As for the experimental part: The rats were deeply anesthetized, and decapitated to collect the brain at 12-24 hours after modeling. Then about 60 to 120 mg of brain cortex on the hemorrhagic side were weighed, homogenized with 10 times the volume of ice-cold centrifuge buffer for biochemical detection, homogenized for 10 min in an ice bath, and centrifuged at 4° C. for 30 minutes (14,000 rpm/min). The contents of glutamate and GABA in the supernatant were detected according to the instructions of glutamate content detection kit and rat GABA Elisa kit.

Data set [3] deals with ICH rats. Description: Ca2+ level and mitochondrial membrane potential in brain tissue, ICH rats. In kind it is in vivo, rat. The note with it: 12-24 hours after operation, group M. As for the experimental part: The rats were decapitated to collect the brain 12 to 24 hours after modeling. The brain cortex around the hematoma was immediately taken to prepare a single cell suspension by enzymatic digestion (papain: 2 mg/mL; DNAase I: 0.05 mg/mL), with the cell concentration was adjusted to 5×10^6 cells/mL. 100 μL of cell suspension was incubated with 5 μM Fluo-3/AM dye solution or 10 μM Rhodamine 123 dye solution at 37° C. for 45 min. Then the cells were washed twice with PBS (phosphate buffer, pH=7.2-7.4), resuspended with 0.5 mL of PBS, and detected by a flow cytometry at the excitation wavelength of 506 nm and the emission wavelength of 526 nm. The mean fluorescence intensity of Fluo-3 and Rh123 in 10,000 cells was analyzed by FlowJo software.

The next data set concerns mouse bone marrow cells. In words: Mouse bone marrow micronucleus test by flow cytometry. The note with it: mice; for MNPCE / PCE / fMNPCE (‰): 4 days. In kind it is in vivo. As for the experimental part: Experimental grouping and administration: The animals were randomly divided into five groups with 10 […] in each group: blank control group (blank group, administrated blank emulsion with the same volume as the high-dose group of α-asarone), cyclophosphamide group (CTX group, 40 mg/kg), low dose of α-asarone emulsion injection group (prepared by preparation embodiment 7, 100 mg/kg/day, ASA-L group), medium dose of α-asarone emulsion injection group (prepared by preparation embodiment 7, 150 mg/kg/day, ASA-M group), and high dose of α-asarone emulsion injection group (prepared from preparation embodiment 7, 200 mg/kg/day, ASA-H group).
All drugs were administrated through the tail vein for continuous 4 days except for the single injection of the positive control drug cyclophosphamide (CTX) 24 hours before sampling. After 24 hours of the last administration, the mice were sacrificed to separate both femurs. The femoral bone marrow cells were washed with PBS and filtered by 300 mesh nylon cell sieves to prepare a single-cell suspension. The suspension was centrifuged at 1650 rpm for 5 min, and the cell concentration was adjusted to 5×10^6 cells/mL by PBS resuspension. For each sample, 100 μL of the cell suspension was incubated with 400 μL of the PIPES-PI solution (10 mL of PIPES solution (concentration of 3.5 mg/mL)+0.5 mg PI+0.01 mL Triton X-100 (concentration of 0.1%)), gently blown and mixed, at 4° C. in the dark for 30 min and detected by a flow cytometry. […] The higher the value, the stronger the genotoxicity.
(Flow cytometry measures light scatter and fluorescence of single cells or particles in a stream.)

Data set [4] relates to SAH rats. In words: Short-term neurological function of SAH rats (Garcia score, beam balance test, bleeding score). In kind it is in vivo, rat. The following applies: SAH model, 24 hours after modeling; group O, α-asarone emulsion oral administration 40 mg/kg.
Where [5] appears, read: group H, α-asarone emulsion injection 30 mg/kg tail vein.
Setting [6] is: group L, α-asarone emulsion injection 7.5 mg/kg tail vein.
The mark [7] stands for this setting: group M, α-asarone emulsion injection 15 mg/kg tail vein.
The mark [8] stands for this setting: ASA-H group, α-asarone emulsion injection 200 mg/kg/day tail vein.
The mark [9] stands for this setting: ASA-L group, α-asarone emulsion injection 100 mg/kg/day tail vein.
The mark [10] stands for this setting: ASA-M group, α-asarone emulsion injection 150 mg/kg/day tail vein.

Molecules are shown by their SMILES.

As to `C/C=C/c1cc(OC)c(OC)cc1OC` [α-asarone, trans-2,4,5-trimethoxy-1-propenylbenzene], the Beam balance score in the data set on ICH rats [1] (setting [5]) turned out to be 3.31; in the data set with ICH rats [1] (setting [6]), 3.16; in the data set on ICH rats [1] (setting [7]) it was 3.09; with SAH rats [4], 3.30. Further, the Garcia score with ICH rats [1] (setting [5]) worked out at 10.01; in the data set on ICH rats [1] (setting [6]) it was 10.60; in the data set with ICH rats [1] (setting [7]), 10.68; in the data set on SAH rats [4], 10.94. Further, the “curative effect compared with group V (vinpocetine) and group N (nimodipine)” value in the data set on ICH rats [1] (groups L and M, 7.5 and 15 mg/kg) is recorded as “better”. The “GABA content in the hemorrhagic brain tissue” value with SAH rats [2] is reported as “significantly reduce”. Besides, in the data set on SAH rats [2], the “glutamate content in the hemorrhagic brain tissue” value is on record as “significantly reduce”. For the same compound, in the data set on ICH rats [3] (Fluo-3 flow cytometry), the “calcium level in brain tissue” value is given as “significantly reduce”. Also, the “mitochondrial membrane potential in brain tissue” value in the data set on ICH rats [3] (Rhodamine 123 flow cytometry) is “stabilize”. In addition, the figures for the MNPCE in the data set on mouse bone marrow cells (setting [8]), with mouse bone marrow cells (setting [9]) and with mouse bone marrow cells (setting [10]) were 0.55 ± 0.43, 0.39 ± 0.11 and 0.47 ± 0.19, respectively. In addition, the PCE is 41.39 ± 6.11 in the data set on mouse bone marrow cells (setting [8]), 40.58 ± 9.17 in the data set on mouse bone marrow cells (setting [9]) and 38.37 ± 3.18 in the data set on mouse bone marrow cells (setting [10]). Besides, the “fMNPCE (‰)” value was 12.60 ± 8.53 ‰ in the data set on mouse bone marrow cells (setting [8]), 10.10 ± 2.75 ‰ in the data set with mouse bone marrow cells (setting [9]) and 12.34 ± 5.52 ‰ with mouse bone marrow cells (setting [10]). In the data set with mouse bone marrow cells (different doses of α-asarone emulsion injection (100, 150, 200 mg/kg/day)), the “micronucleus rate compared to the blank emulsion group” value is reported as “no significant difference”. Further, the “changes in the micronucleus rate of mouse bone marrow cells” value with mouse bone marrow cells (intravenous dose of up to 200 mg/kg α-asarone emulsion injection) is “no significant changes”.

The values are drawn from patent publication US12636260B2, “Application of α-asarone in preparation of medicine for preventing or treating hemorrhagic stroke” (CHENGDU XINRUI TAIKANG TECHNOLOGY CO., LTD., priority 2021, dated 2026).
